Data taken from paper PMC6321168, “Comparative Study on Excretive Characterization of Main Components in Herb Pair Notoginseng-Safflower and Single Herbs by LC–MS/MS” (Pharmaceutics, 2018).

Experiment: Fecal excretion study in rats after oral NS, SF or CNS (LC–MS/MS)
Assay type: in vivo
Conditions: rat feces
Method: The animal room was set at constant temperature of 20 ± 2 °C with humidity of 50 ± 20% and 12/12 h light/dark cycle.
Eighteen male rats were fasted for 12 h before starting the experiment. The rats were divided into three groups at random (n = 6) and received NS (60 mg/kg), SF (50 mg/kg), and NS (60 mg/kg) + SF (50 mg/kg), respectively, by oral gavage. The rats were placed in separate metabolic cages. The urine samples were collected at 0–2, 2–4, 4–6, 6–8, 8–12, 12–24, 24–36, 36–48, 48–72, 72–96, and 96–120 h. The feces samples were collected at 0–4, 4–8, 8–12, 12–24, 24–36, 36–48, 48–72, 72–96, and 96–120 h. The urine volume was recorded and the dry feces were measured for each collection period. Samples were stored at −80 °C until analysis.
Feces samples were homogenized in ultrapure water (1 g/15 mL), soaked for 30 min, ultrasonically extracted for 30 min and centrifuged at 9000 rpm for 8 min. An aliquot of 200 μL feces water extraction solution was mixed with 10 μL of IS and then extracted three times with water-saturated n-BuOH (150 μL). The upper organic phase was combined and evaporated to dryness using a ZLS-2 vacuum centrifugal concentrator. The residue was treated as the urine sample and a 1-μL aliquot was injected for LC–MS analysis.
Ultra fast liquid chromatography (UFLC) analysis was performed using a Shimadzu UFLC system (DGU-20A3R Degasser; LC-20AD pump; SIL-20AXR Autosampler; CTO-20AC Column Oven) (Nakagyo-Ku, Koyoto, Japan). […] Because of the different endogenous substances in the urine and feces samples, different elution gradients were used to alleviate the matrix effects for the analytes.
The mass spectrometric detection was performed on an ABSciex 4500 Qtrap mass spectrometer (ABSciex, Foster City, CA, USA) equipped with a negative electrospray ionization (ESI) interface using multiple reaction monitoring (MRM). The MS parameters were optimized under the selected ion monitoring conditions as follows: curtain gas, 35 psi; ionspray voltage, 4500 V; turbo gas temperature, 450 °C; GS1, 45 psi; GS2, 45 psi. All data were acquired and analyzed by Analyst software (Versions 1.6.2) from ABSciex.
The accumulative excretion percentage was calculated for each analyte as follows. Excretion at time (t) = [concentration of the analyte (ng/mL) at t] × total urine (or feces) volume (mL) at t. The cumulative excretion up to time t (mg) was expressed as a percent (%) cumulative excretion by dividing by the total amount of the analyte ingested (mg): % Cumulative Excretion = 100 × (Σt excretiont) total ingested.

Work on `CC(C)=CCC[C@](C)(O[C@@H]1O[C@H](CO)[C@@H](O)[C@H](O)[C@H]1O)[C@H]1CC[C@]2(C)[C@@H]1[C@H](O)C[C@@H]1[C@@]3(C)CC[C@H](O[C@@H]4O[C@H](CO)[C@@H](O)[C@H](O)[C@H]4O[C@@H]4O[C@H](CO)[C@@H](O)[C@H](O)[C@H]4O)C(C)(C)[C@@H]3CC[C@]12C` [ginsenoside Rd] yielded a concentration at 4 h (male, Sprague Dawley, oral CNS 110 mg/kg, 4 h) of 204 ± 283 ng/mL, a concentration at 8 h (male, Sprague Dawley, oral CNS 110 mg/kg, 8 h) of 274 ± 65 ng/mL and a concentration at 12 h (male, Sprague Dawley, oral CNS 110 mg/kg, 12 h) of 164 ± 12 ng/mL. The concentration at 24 h (male, Sprague Dawley, oral CNS 110 mg/kg, 24 h) was 119 ± 51 ng/mL, the concentration at 36 h (male, Sprague Dawley, oral CNS 110 mg/kg, 36 h) was 653 ± 41 ng/mL and the concentration at 48 h (male, Sprague Dawley, oral CNS 110 mg/kg, 48 h) was 658 ± 72 ng/mL. For the same compound, the concentration at 72 h (male, Sprague Dawley, oral CNS 110 mg/kg, 72 h) was 153 ± 72 ng/mL, the concentration at 96 h (male, Sprague Dawley, oral CNS 110 mg/kg, 96 h) was 35 ± 34 ng/mL and the concentration at 4 h (male, Sprague Dawley, oral NS 60 mg/kg, 4 h) was 752 ± 79 ng/mL. For the same compound, the concentration at 8 h (male, Sprague Dawley, oral NS 60 mg/kg, 8 h) was 605 ± 22 ng/mL, the concentration at 12 h (male, Sprague Dawley, oral NS 60 mg/kg, 12 h) was 602 ± 49 ng/mL and the concentration at 24 h (male, Sprague Dawley, oral NS 60 mg/kg, 24 h) was 670 ± 34 ng/mL. It also gave a concentration at 36 h (male, Sprague Dawley, oral NS 60 mg/kg, 36 h) of 505 ± 14 ng/mL, a concentration at 48 h (male, Sprague Dawley, oral NS 60 mg/kg, 48 h) of 704 ± 26 ng/mL and a concentration at 72 h (male, Sprague Dawley, oral NS 60 mg/kg, 72 h) of 122 ± 5 ng/mL. For the same compound, the concentration at 96 h (male, Sprague Dawley, oral NS 60 mg/kg, 96 h) was 17 ± 1 ng/mL, the concentration at 120 h (male, Sprague Dawley, oral NS 60 mg/kg, 120 h) was 15 ± 2 ng/mL and the Accumulative excretion amount (oral CNS 110 mg/kg, 4 h) was 2.579 ± 3.701 µg. For the same compound, the Accumulative excretion percentage (oral CNS 110 mg/kg, 4 h) was 0.343±0.491%, the Excretion amount (oral CNS 110 mg/kg, 4 h) was 2.579 ± 3.701 µg and the Accumulative excretion amount (oral CNS 110 mg/kg, 8 h) was 6.687 ± 3.535 µg. The Accumulative excretion percentage (oral CNS 110 mg/kg, 8 h) was 0.883±0.462%, the Excretion amount (oral CNS 110 mg/kg, 8 h) was 4.108 ± 1.195 µg and the Accumulative excretion amount (oral CNS 110 mg/kg, 12 h) was 9.145 ± 3.524 µg. For the same compound, the Accumulative excretion percentage (oral CNS 110 mg/kg, 12 h) was 1.204±0.465%, the Excretion amount (oral CNS 110 mg/kg, 12 h) was 2.459 ± 0.753 µg and the Accumulative excretion amount (oral CNS 110 mg/kg, 24 h) was 11.000 ± 3.256 µg. For the same compound, the Accumulative excretion percentage (oral CNS 110 mg/kg, 24 h) was 1.453±0.432%, the Excretion amount (oral CNS 110 mg/kg, 24 h) was 1.855 ± 1.046 µg and the Accumulative excretion amount (oral CNS 110 mg/kg, 36 h) was 20.700 ± 5.415 µg. It also gave an Accumulative excretion percentage (oral CNS 110 mg/kg, 36 h) of 2.724±0.715%, an Excretion amount (oral CNS 110 mg/kg, 36 h) of 9.700 ± 2.660 µg and an Accumulative excretion amount (oral CNS 110 mg/kg, 48 h) of 30.478 ± 7.801 µg. For the same compound, the Accumulative excretion percentage (oral CNS 110 mg/kg, 48 h) was 4.011±1.032%, the Excretion amount (oral CNS 110 mg/kg, 48 h) was 9.778 ± 2.743 µg and the Accumulative excretion amount (oral CNS 110 mg/kg, 72 h) was 32.881 ± 8.515 µg. It also gave an Accumulative excretion percentage (oral CNS 110 mg/kg, 72 h) of 4.322±1.123%, an Excretion amount (oral CNS 110 mg/kg, 72 h) of 2.403 ± 1.477 µg and an Accumulative excretion amount (oral CNS 110 mg/kg, 96 h) of 33.451 ± 8.722 µg. It also gave an Accumulative excretion percentage (oral CNS 110 mg/kg, 96 h) of 4.403±1.154%, an Excretion amount (oral CNS 110 mg/kg, 96 h) of 0.570 ± 0.568 µg and an Accumulative excretion percentage (oral CNS 110 mg/kg, 120 h) of 4.404±1.151%. The Accumulative excretion amount (oral NS 60 mg/kg, 4 h) was 10.755 ± 3.385 µg, the Accumulative excretion percentage (oral NS 60 mg/kg, 4 h) was 1.232±0.395% and the Excretion amount (oral NS 60 mg/kg, 4 h) was 10.755 ± 3.385 µg. The Accumulative excretion amount (oral NS 60 mg/kg, 8 h) was 19.476 ± 6.086 µg, the Accumulative excretion percentage (oral NS 60 mg/kg, 8 h) was 2.244± 0.706% and the Excretion amount (oral NS 60 mg/kg, 8 h) was 8.721 ± 2.813 µg. It also gave an Accumulative excretion amount (oral NS 60 mg/kg, 12 h) of 28.152 ± 8.861 µg, an Accumulative excretion percentage (oral NS 60 mg/kg, 12 h) of 3.232±1.024% and an Excretion amount (oral NS 60 mg/kg, 12 h) of 8.676 ± 2.808 µg. The Accumulative excretion amount (oral NS 60 mg/kg, 24 h) was 37.713 ± 11.637 µg, the Accumulative excretion percentage (oral NS 60 mg/kg, 24 h) was 4.331±1.342% and the Excretion amount (oral NS 60 mg/kg, 24 h) was 9.562 ± 2.795 µg. It also gave an Accumulative excretion amount (oral NS 60 mg/kg, 36 h) of 45.004 ± 14.004 µg, an Excretion amount (oral NS 60 mg/kg, 36 h) of 7.290 ± 2.427 µg and an Accumulative excretion amount (oral NS 60 mg/kg, 48 h) of 55.154 ± 17.338 µg. For the same compound, the Accumulative excretion percentage (oral NS 60 mg/kg, 48 h) was 6.332±1.991%, the Excretion amount (oral NS 60 mg/kg, 48 h) was 10.151 ± 3.361 µg and the Accumulative excretion amount (oral NS 60 mg/kg, 72 h) was 56.907 ± 17.892 µg. The Accumulative excretion percentage (oral NS 60 mg/kg, 72 h) was 6.534±2.048%, the Excretion amount (oral NS 60 mg/kg, 72 h) was 1.753 ± 0.562 µg and the Accumulative excretion amount (oral NS 60 mg/kg, 96 h) was 57.148 ± 17.967 µg. The Accumulative excretion percentage (oral NS 60 mg/kg, 96 h) was 6.563±2.059%, the Excretion amount (oral NS 60 mg/kg, 96 h) was 0.241 ± 0.076 µg and the Accumulative excretion amount (oral NS 60 mg/kg, 120 h) was 57.371 ± 18.037 µg. For the same compound, the Accumulative excretion percentage (oral NS 60 mg/kg, 120 h) was 6.589±2.068% and the Excretion amount (oral NS 60 mg/kg, 120 h) was 0.223 ± 0.076 µg.
